Reference: PMC8929364, “Metopimazine is primarily metabolized by a liver amidase in humans” (Pharmacology Research & Perspectives, 2021)
Where “and” joins values, the source holds several entries; their conditions need not be identical. Equal values may be shown once. Read-outs that look alike come from different tables or passages of the source.

Legend:
[1] = Clinical study NG100-101: plasma pharmacokinetics of metopimazine and metabolites after a single oral 60 mg dose; type: in vivo, healthy adult subjects (human); conditions: for % Drug‐related material MPZA / % Drug‐related material MPZ: based on AUClast; for % Drug‐related material MPZA / percent of total circulating drug‐related material / % Drug‐related material MPZ: single 60 mg dose; for Tmax / AUC(0-t) / Cmax: both sexes, human, po, 60 mg; for percent of total circulating drug‐related material: rough estimate based on AUClast
Description: The clinical study was conducted at Biotrial Rennes, in accordance with the Declaration of Helsinki. The study (NG100‐101) was a double‐blind, placebo‐ controlled, ascending single‐ and multiple‐dose study of the safety, tolerability, and pharmacokinetics of metopimazine administered orally to healthy adult subjects. The study protocol, informed consent form, and appropriate related documents were approved by the institutional review board, and all subjects provided written informed consent prior to participation in the study. […] In the morning, after at least 10 h of fasting overnight, eight healthy adult subjects (male or female aged 18 to 45), were orally administered metopimazine (or a matching placebo). […] Blood samples were collected at the following time points: predose and 0.25, 0.5, 0.75, 1, 1.25, 1.5, 2, 3, 4, 6, 8, 12, 18, and 24 h postdose; plasma samples were obtained by centrifugation of the blood samples. A comprehensive safety and pharmacokinetic analysis was performed for each cohort for the SAD and MAD parts of the study and will be presented elsewhere. A fit‐for‐purpose discovery method was used to analyze 4 subjects from the highest single dosed cohort for the presence of metabolites. Plasma concentrations of metopimazine, metopimazine acid and metopimazine sulfoxide were quantified using LC–MS/MS methods. Venous blood samples (6 ml) for the determination of plasma concentrations of MPZ and metabolites (MPZA and MPZS) were drawn by direct venipuncture or via an intravenous catheter into K2EDTA Vacutainer® tubes. It was important to avoid hemolysis during blood collection. After collection, the blood samples were centrifuged within 60 min, at 3000 rotations per minute for 10 min at 5°C. The resulting plasma was separated into 2 equal aliquots of 1000 µl (aliquots A & B) and transferred to polypropylene tubes, which were labeled, frozen within 120 min of blood collection and stored at –70°C until required for bioanalysis. Immediately prior to bioanalysis, samples were thawed and a 200 µl aliquots were removed and analytes extracted using acetonitrile protein precipitation. The extracted samples were analyzed twice, once for quantification of MPZ and MPZA and again for MPZS quantification as described below. An MRM LC–MS/MS method was developed for MPZ and metopimazine acid (MPZA) in rat, dog, and human plasma. The method was run in reverse phase in positive ion mode. […] D6‐isotopically labeled internal standards were used for each analyte. The following m/z transitions were monitored: metopimazine 446.3 → 141.1 and metopimazine acid 447.2 → 142.1. […] An MRM LC–MS/MS method was developed to look for metopimazine sulfoxide (MPZS) in human plasma. The method was run in reverse phase in positive ion mode. The system was identical to what was described above except that a slightly longer column was used, a Supelco Discovery HS F5 100 × 4.0 mm (3 µm) column (Sigma‐Aldrich). A D6‐isotopically labeled internal standards was used for MPS and the m/z transition monitored was 462.3 → 98.1. A calibration curve was generated for the quantification of MPZS in human plasma. Noncompartmental Pharmacokinetics analysis was performed in Phoenix 64 Winnonlin version 8.1.

[2] = Rat PK study, single oral dose of metopimazine; type: in vivo, Sprague Dawley rats; conditions: Sprague Dawley, plasma, 45 mg/kg metopimazine single oral dose, mean (SD)
Description: The pharmacokinetics of metopimazine (parent) and metopimazine acid (metabolite) were evaluated in male and female Sprague Dawley rats following a single oral dose of 45 mg/kg metopimazine (free base). Three animals per sex in each dose group were sampled at each timepoint after administration (0.25, 0.5, 1, 2, 4, 8, 12, and 24 h). The rats (rattus norvegicus) were obtained from Envigo RMS, Inc. and were 2 months old. Animals were weighed prior to each dose administration for the purpose of dose calculation. Whole venous blood samples of approximately 0.5 ml were collected from a peripheral vein of animals for determination of exposure to metopimazine and metopimazine acid. Three animals per sex were sampled at each timepoint. Samples were collected in tubes containing K2EDTA with protease inhibitor cocktail (Sigma, # P8340, at ratio 1:100) and placed on ice until processed for plasma by centrifugation under refrigeration for at least 10 min at 1912 x g. After centrifugation, supernatant was removed and stored frozen in a −70°C freezer until analyzed by LC–MS/MS.
(§1) An MRM LC–MS/MS method was developed for MPZ and metopimazine acid (MPZA) in rat, dog, and human plasma. The method was run in reverse phase in positive ion mode. […] D6‐isotopically labeled internal standards were used for each analyte. The following m/z transitions were monitored: metopimazine 446.3 → 141.1 and metopimazine acid 447.2 → 142.1.
(§2) Noncompartmental Pharmacokinetics analysis was performed in Phoenix 64 Winnonlin version 8.1.

[3] = Incubation of MPZ with pooled human liver microsomes (disappearance, metabolite formation); type: in vitro ADME; conditions: for Peak area at time 0 / Peak area at time 90 min: metopimazine incubation in human liver microsomes, full scan LC–MS
Description: To conduct the metabolic incubation in liver microsomes in the linear range, protein concentration and the reaction time were optimized.
PAR was also used for all positive control compounds.
The degree of disappearance of each analyte was evaluated by comparing the PAR of analyte to IS or concentration in different sampling time points to the PAR of time zero, (t = 0, 100%). The percent of parent remaining values were calculated according to the following equation: %parentremaining=(meanconcentrationorPARateachsamplingtimepoint/meanconcentrationorPARoftimezero)×100

[4] = Dog PK study, single oral dose of metopimazine; type: in vivo, beagle dogs; conditions: beagle, plasma; Dog (male), 10 mg/kg metopimazine single oral dose, mean (SD)
Description: The pharmacokinetics of metopimazine (parent) and metopimazine acid (metabolite) were evaluated in three male, beagle dogs following a single oral dose of 10 mg/kg metopimazine (free base). The dogs were obtained from Marshall BioResources. Animals were weighed prior to each dose administration for the purpose of dose calculation. Metopimazine was administered in size 13 gelatin capsules. Whole venous blood samples of approximately 1.0 ml were collected from a peripheral vein of all animals for determination of metopimazine and metopimazine acid. Samples were collected at the following timepoints: 0.25, 0.5, 1, 2, 4, 8, 12, and 24 h after test article administration. All animals were sampled at each timepoint. Samples were collected in tubes containing K2EDTA and placed on ice until processed for plasma by centrifugation under refrigeration for at least 10 min at 1912 x g. After centrifugation, the supernatant was removed and stored frozen in a −70°C freezer until analyzed by LC–MS/MS.
as §1, §2

[5] = cited from earlier work
[6] = plasma, individual subjects, single oral 60 mg MPZ dose

SMILES | percent of total circulating drug‐related material [1] | AUC(0-inf) ([2]; Rat (female)) [ng·h/mL] | Cmax ([2]; Rat (female)) [ng/mL] | Tmax ([2]; Rat (female)) [h] | AUC(0-inf) ([2]; Rat (male)) [ng·h/mL] | Cmax ([2]; Rat (male)) [ng/mL] | Tmax ([2]; Rat (male)) [h] | Peak area at time 0 [3] | Peak area at time 90 min [3] | AUC(0-inf) [4] [ng·h/mL] | Cmax [4] [ng/mL] | Tmax [4] [h] | other results
CS(=O)(=O)c1ccc2c(c1)N(CCCN1CCC(C(=O)O)CC1)c1ccccc1S2 [MPZA, metopimazine acid] | approximately 90% | 884 | 110 | 3 | 755 | 89 | 4 | 0 | 208 | 728 | 103 | 2 | % Drug‐related material MPZA ([1]; individual subjects): 93.0% and 89.2% and 93.3% and 92.4%; % Drug‐related material MPZA ([1]; mean of 4 subjects): 92.0%; Tmax ([1]; plasma, 4 subjects, single oral 60 mg MPZ dose, read-out: Tmax, range over subjects): 1.25 to 3 h; AUC(0-t) ([1]; plasma, plasma, individual subjects, single oral 60 mg MPZ dose, read-out: MPZA AUClast): 1590 ng·h/mL; AUC(0-t) ([1]; plasma, plasma, mean of 4 subjects, single oral 60 mg MPZ dose, read-out: MPZA AUClast): 2080 ng·h/mL; Cmax ([1]; plasma, plasma, mean of 4 subjects, single oral 60 mg MPZ dose, read-out: MPZA C max): 397 ng/mL; Tmax ([1]; plasma, plasma, mean of 4 subjects, single oral 60 mg MPZ dose, read-out: MPZA T max): 1.8 h; MPZA AUClast [1, 6]: 2506.1 ng‐h/ml and 1941.9 ng‐h/ml and 2265.8 ng‐h/ml; MPZA C max [1, 6]: 241 ng/mL and 601 ng/mL and 357 ng/mL and 390 ng/mL; MPZA T max [1, 6]: 3 h and 1.25 h (2×) and 1.5 h; share of circulating drug‐related material in plasma ([5]; clinical doses of 20 and 50 mg MPZ, single dose, preprandially or postprandially): ≥ 80%; share of circulating drug‐related material based on AUC exposure ([5]; humans): over 90%
CS(=O)(=O)c1ccc2c(c1)N(CCCN1CCC(C(N)=O)CC1)c1ccccc1S2 [MPZ, metopimazine] | less than 10% | 13900 | 1730 | 4 | 8170 | 1080 | 4 | 2373 | 715 | 2600 | 416 | 0.83 | % Drug‐related material MPZ ([1]; individual subjects): 6.5% and 9.9% and 6.2% and 6.8%; % Drug‐related material MPZ ([1]; mean of 4 subjects): 7.4%; Tmax ([1]; plasma, plasma, individual subjects, single oral 60 mg MPZ dose, read-out: MPZ T max): 3 h; AUC(0-t) ([1]; plasma, plasma, mean of 4 subjects, single oral 60 mg MPZ dose, read-out: MPZ AUClast): 172 ng·h/mL; Cmax ([1]; plasma, plasma, mean of 4 subjects, single oral 60 mg MPZ dose, read-out: MPZ C max): 93.9 ng/mL; Tmax ([1]; plasma, plasma, mean of 4 subjects, single oral 60 mg MPZ dose, read-out: MPZ T max): 1.4 h; MPZ AUClast [1, 6]: 111.9 ng‐h/ml and 278.2 ng‐h/ml and 129.4 ng‐h/ml and 167.5 ng‐h/ml; MPZ C max [1, 6]: 38.9 ng/mL and 203 ng/mL and 75.6 ng/mL and 58.2 ng/mL; MPZ T max [1, 6]: 0.75 h and 1 h; percent of parent remaining ([3]; 1 µM MPZ, HLM 0.5 mg/ml protein, NADPH, 60 min): 37.2%; blood–brain barrier penetration [5]: does not penetrate the blood–brain barrier; absolute bioavailability ([5]; humans, 10 mg dose of MPZ): under 20%
